The source of these data is patent publication US20260297092A1, “PYRAZOLOPYRIMIDINE DERIVATIVES AS INHIBITORS OF NLRP3” (Takeda Pharmaceutical Company Limited, priority 2023, published 2026).

For assay [1], the system named is NLRP3 inflammasome (IL-1β production in THP-1 cells). Description: IL-1β TR-FRET Assay (percentage of inhibition at 300 nM, 6 μM or 10 μM). The assay is classed as cell-based, human. The settings on record: Homo sapiens, THP-1, 6 μM, LPS priming, ATP activation, read-out: IL-1β inhibitory rate at 6 μM (%). An outline of the steps: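 Percent inhibition of IL-1β used DMSO wells as 0% and 3 μM MCC-950 wells as full inhibition, with supernatant read by HTRF. Beforehand, IFN-γ-differentiated (25 ng/mL, 24 h), LPS-primed (50 ng/mL, 24 h) THP-1 cells received compound 30 min before inflammasome activation by 20 mM ATP for 2 h.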

The test system of assay [2] is TNF-α (NF-κB pathway, THP-1 cells). The experiment in a line: TNF-α Assay (IC50). The assay is classed as cell-based, human. The settings on record: Homo sapiens, 600 ng/mL LPS, 3 hours. An outline of the steps:
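Supernatant TNF-α quantified by ELISA after 3 h stimulation with 600 ng/mL LPS at 37 °C, following 30 min compound preincubation. Cells: IFN-differentiated (25 ng/mL, 24 h) THP-1 macrophages, 40,000/well, serum-free. IC50 by sigmoidal fit of % inhibition, with TPCA-1 as 100% control.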

Molecules are shown by their SMILES.

As to `Cc1cc(C2CC2)cc(C)c1-n1cc2c(=O)[nH]c(O[C@@H]3CCOC3)nc2n1` [Example 293, 2-(4-cyclopropyl-2,6-dimethylphenyl)-6-{[(3R)-oxolan-3-yl]oxy}-2,5-dihydro-4H-pyrazolo[3,4-d]pyrimidin-4-one], the inhibition at 6 µM in assay [1] is 99%. Moreover, the IC50 (usually the point on the concentration scale where inhibition reaches its midpoint) in assay [2] is over 30 µM.
On the same counts, the results for `CCc1nc2nn(-c3c(F)cc(C4CC4)cc3C(F)F)cc2c(=O)[nH]1` [Example 295, 2-[4-cyclopropyl-2-(difluoromethyl)-6-fluorophenyl]-6-ethyl-2,5-dihydro-4H-pyrazolo[3,4-d]pyrimidin-4-one] are 105% and over 30 µM.
For the molecule `O=c1[nH]c(C2CCOC2)nc2nn(-c3c(F)cc(C4CC4)cc3C(F)F)cc12` (stereo not drawn) [Example 296, 2-[4-cyclopropyl-2-(difluoromethyl)-6-fluorophenyl]-6-(oxolan-3-yl)-2,5-dihydro-4H-pyrazolo [3,4-d]pyrimidin-4-one], in assay [1], the inhibition at 6 µM was 104%. This molecule had a half-inhibitory concentration (IC50) in assay [2] of over 30 µM.
Regarding `Cc1cc(C2CC2)cc(C)c1-n1cc2c(=O)[nH]c(-c3ccn(C)n3)nc2n1` [Example 297, 2-(4-cyclopropyl-2,6-dimethylphenyl)-6-(1-methyl-1H-pyrazol-3-yl)-2,5-dihydro-4H-pyrazolo[3,4-d]pyrimidin-4-one], the inhibition at 6 µM in assay [1] was 90%. In assay [2], this molecule yielded an IC50 of over 30 µM.
On to `Cc1nc(-c2nc3nn(-c4c(F)cc(C5CC5)cc4C(F)F)cc3c(=O)[nH]2)co1` [Example 298, 2-[4-cyclopropyl-2-(difluoromethyl)-6-fluorophenyl]-6-(2-methyl-1,3-oxazol-4-yl)-2,5-dihydro-4H-pyrazolo[3,4-d]pyrimidin-4-one], for which the inhibition at 6 µM in assay [1] came out at 99%. Further, the IC50 in assay [2] is over 30 µM.
For `Cn1ccc(-c2nc3nn(-c4c(F)cc(C5CC5)cc4C(F)F)cc3c(=O)[nH]2)n1` [Example 299, 2-[4-cyclopropyl-2-(difluoromethyl)-6-fluorophenyl]-6-(1-methyl-1H-pyrazol-3-yl)-2,5-dihydro-4H-pyrazolo[3,4-d]pyrimidin-4-one], the inhibition at 6 µM in assay [1] stood at 99%. Also, the IC50 in assay [2] was over 30 µM.
On to `COCCc1nc2nn(-c3c(F)cc(C4CC4)cc3C(F)F)cc2c(=O)[nH]1` [Example 300, 2-[4-cyclopropyl-2-(difluoromethyl)-6-fluorophenyl]-6-(2-methoxyethyl)-2,5-dihydro-4H-pyrazolo[3,4-d]pyrimidin-4-one], for which the inhibition at 6 µM in assay [1] amounted to 99%. Besides, in assay [2], the IC50 was over 30 µM.
For `CCc1cc(C2(F)CC2)cc(C)c1-n1cc2c(=O)[nH]c(OC)nc2n1` [Example 301, 2-[2-ethyl-4-(1-fluorocyclopropyl)-6-methylphenyl]-6-methoxy-2,5-dihydro-4H-pyrazolo[3,4-d]pyrimidin-4-one], in that order: 98% and over 30 µM.
In the case of `O=c1[nH]c(COC(F)F)nc2nn(-c3c(F)cc(C4CC4)cc3C(F)F)cc12` [Example 302, 2-[4-cyclopropyl-2-(difluoromethyl)-6-fluorophenyl]-6-[(difluoromethoxy)methyl]-2,5-dihydro-4H-pyrazolo[3,4-d]pyrimidin-4-one], the inhibition at 6 µM in assay [1] is 96%. Besides, the IC50 in assay [2] is over 30 µM.
For the molecule `CCOc1nc2nn(-c3c(C)cc(C4CC4)nc3C(F)(F)F)cc2c(=O)[nH]1` [Example 303, 2-[6-cyclopropyl-4-methyl-2-(trifluoromethyl)pyridin-3-yl]-6-ethoxy-2,5-dihydro-4H-pyrazolo[3,4-d]pyrimidin-4-one], the inhibition at 6 µM in assay [1] turned out to be 100%. The half-inhibitory concentration (IC50) in assay [2] was over 30 µM.
With `COCc1nc2nn(-c3c(F)cc(C4CC4)cc3C(F)F)cc2c(=O)[nH]1` [Example 308, 2-[4-cyclopropyl-2-(difluoromethyl)-6-fluorophenyl]-6-(methoxymethyl)-2,5-dihydro-4H-pyrazolo[3,4-d]pyrimidin-4-one], the inhibition at 6 µM in assay [1] came out at 103%. The half-maximal inhibitory concentration (IC50) in assay [2] was over 30 µM.
For `Cc1cc(C2CC2)cc(C)c1-n1cc2c(=O)[nH]c(CC#N)nc2n1` [Example 317, [2-(4-cyclopropyl-2,6-dimethylphenyl)-4-oxo-4,5-dihydro-2H-pyrazolo[3,4-d]pyrimidin-6-yl]acetonitrile], in that order: 100% and over 30 µM.
In the case of `Cc1cc(C2CC2)cc(C(F)F)c1-n1cc2c(=O)[nH]c(C3(F)CC3)nc2n1` [Example 319, 2-[4-cyclopropyl-2-(difluoromethyl)-6-methylphenyl]-6-(1-fluorocyclopropyl)-2,5-dihydro-4H-pyrazolo[3,4-d]pyrimidin-4-one], the inhibition at 6 µM in assay [1] worked out at 100%. Further, the half-maximal inhibitory concentration (IC50) in assay [2] was over 30 µM.
In the case of `COCc1nc2nn(-c3c(C)cc(C4CC4)cc3C(F)F)cc2c(=O)[nH]1` [Example 321, 2-[4-cyclopropyl-2-(difluoromethyl)-6-methylphenyl]-6-(methoxymethyl)-2,5-dihydro-4H-pyrazolo[3,4-d]pyrimidin-4-one], the inhibition at 6 µM in assay [1] came out at 103%. Further, the IC50 in assay [2] was over 30 µM.
With `COCc1nc2nn(-c3c(F)cc(C4CC4)cc3CC(F)F)cc2c(=O)[nH]1` [Example 322, 2-[4-cyclopropyl-2-(2,2-difluoroethyl)-6-fluorophenyl]-6-(methoxymethyl)-2,5-dihydro-4H-pyrazolo[3,4-d]pyrimidin-4-one], in assay [1], the inhibition at 6 µM turned out to be 104%. For the same molecule, the IC50 in assay [2] is over 30 µM.
